# Measured values: the supplement of paper PMC10307832
# Key:
# Experiment in all cases: relative viability (nuclei count vs DMSO), 5 days (fraction); higher = more cells survive
# Alisertib + Vorinostat = compound: COc1cc(Nc2ncc3c(n2)-c2ccc(Cl)cc2C(c2c(F)cccc2OC)=NC3)ccc1C(=O)O [Alisertib] + O=C(CCCCCCC(=O)Nc1ccccc1)NO [Vorinostat] (partner 1 µM)
# How it was run: (§1)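 The day after seeding in 1536-well plates, lung cancer cell lines were treated by pin tool with a single drug, or with a fixed anchor-drug dose together with five library-drug doses (not always all listed) in √10 steps. After 5 days, a combined fix-and-stain solution (final 0.05% Triton X-100, 1% formaldehyde, 1 ug/ml Hoechst) was added. Nuclei counted on 4× images gave relative viability as treated counts over vehicle counts, reported as the median of duplicate plates.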
# Alisertib + Alpelisib = compound: COc1cc(Nc2ncc3c(n2)-c2ccc(Cl)cc2C(c2c(F)cccc2OC)=NC3)ccc1C(=O)O [Alisertib] + Cc1nc(NC(=O)N2CCC[C@H]2C(N)=O)sc1-c1ccnc(C(C)(C)C(F)(F)F)c1 [Alpelisib] (partner 2 µM)
# How it was run: as §1
# Alisertib + Navitoclax = compound: COc1cc(Nc2ncc3c(n2)-c2ccc(Cl)cc2C(c2c(F)cccc2OC)=NC3)ccc1C(=O)O [Alisertib] + CC1(C)CCC(c2ccc(Cl)cc2)=C(CN2CCN(c3ccc(C(=O)NS(=O)(=O)c4ccc(N[C@H](CCN5CCOCC5)CSc5ccccc5)c(S(=O)(=O)C(F)(F)F)c4)cc3)CC2)C1 [Navitoclax] (partner 0.5 µM)
# How it was run: as §1
# Alisertib + Linsitinib = compound: COc1cc(Nc2ncc3c(n2)-c2ccc(Cl)cc2C(c2c(F)cccc2OC)=NC3)ccc1C(=O)O [Alisertib] + C[C@]1(O)C[C@@H](c2nc(-c3ccc4ccc(-c5ccccc5)nc4c3)c3c(N)nccn32)C1 [Linsitinib] (partner 1 µM)
# How it was run: as §1
cell line,measurement,setting,value
NCI-H647,relative viability,Alisertib + Vorinostat; first compound 0.005 µM,0.49
same,relative viability,Alisertib + Vorinostat; first compound 0.01581 µM,0.156
same,relative viability,Alisertib + Vorinostat; first compound 0.05 µM,0.106
same,relative viability,Alisertib + Vorinostat; first compound 0.1581 µM,0.112
same,relative viability,Alisertib + Vorinostat; first compound 0.5 µM,0.0745
same,relative viability,Alisertib + Alpelisib; first compound 0.005 µM,1.05
same,relative viability,Alisertib + Alpelisib; first compound 0.01581 µM,0.691
same,relative viability,Alisertib + Alpelisib; first compound 0.05 µM,0.341
same,relative viability,Alisertib + Alpelisib; first compound 0.1581 µM,0.148
same,relative viability,Alisertib + Alpelisib; first compound 0.5 µM,0.0808
same,relative viability,Alisertib + Navitoclax; first compound 0.005 µM,1.05
same,relative viability,Alisertib + Navitoclax; first compound 0.01581 µM,1.06
same,relative viability,Alisertib + Navitoclax; first compound 0.05 µM,0.293
same,relative viability,Alisertib + Navitoclax; first compound 0.1581 µM,0.169
same,relative viability,Alisertib + Navitoclax; first compound 0.5 µM,0.0658
same,relative viability,Alisertib + Linsitinib; first compound 0.005 µM,1.15
same,relative viability,Alisertib + Linsitinib; first compound 0.01581 µM,0.883
same,relative viability,Alisertib + Linsitinib; first compound 0.05 µM,0.373
same,relative viability,Alisertib + Linsitinib; first compound 0.1581 µM,0.287
same,relative viability,Alisertib + Linsitinib; first compound 0.5 µM,0.0691
NCI-H1793,relative viability,Alisertib + Vorinostat; first compound 0.005 µM,0.465
same,relative viability,Alisertib + Vorinostat; first compound 0.01581 µM,0.41
same,relative viability,Alisertib + Vorinostat; first compound 0.05 µM,0.267
same,relative viability,Alisertib + Vorinostat; first compound 0.1581 µM,0.191
same,relative viability,Alisertib + Vorinostat; first compound 0.5 µM,0.221
same,relative viability,Alisertib + Alpelisib; first compound 0.005 µM,0.735
same,relative viability,Alisertib + Alpelisib; first compound 0.01581 µM,0.9
same,relative viability,Alisertib + Alpelisib; first compound 0.05 µM,0.383
same,relative viability,Alisertib + Alpelisib; first compound 0.1581 µM,0.329
same,relative viability,Alisertib + Alpelisib; first compound 0.5 µM,0.2
same,relative viability,Alisertib + Navitoclax; first compound 0.005 µM,0.428
same,relative viability,Alisertib + Navitoclax; first compound 0.01581 µM,0.339
same,relative viability,Alisertib + Navitoclax; first compound 0.05 µM,0.247
same,relative viability,Alisertib + Navitoclax; first compound 0.1581 µM,0.17
same,relative viability,Alisertib + Navitoclax; first compound 0.5 µM,0.148
same,relative viability,Alisertib + Linsitinib; first compound 0.005 µM,0.811
same,relative viability,Alisertib + Linsitinib; first compound 0.01581 µM,0.923
same,relative viability,Alisertib + Linsitinib; first compound 0.05 µM,0.373
same,relative viability,Alisertib + Linsitinib; first compound 0.1581 µM,0.276
same,relative viability,Alisertib + Linsitinib; first compound 0.5 µM,0.197
NCI-H1395,relative viability,Alisertib + Vorinostat; first compound 0.005 µM,0.667
same,relative viability,Alisertib + Vorinostat; first compound 0.01581 µM,0.588
same,relative viability,Alisertib + Vorinostat; first compound 0.05 µM,0.442
same,relative viability,Alisertib + Vorinostat; first compound 0.1581 µM,0.385
same,relative viability,Alisertib + Vorinostat; first compound 0.5 µM,0.321
same,relative viability,Alisertib + Alpelisib; first compound 0.005 µM,0.968
same,relative viability,Alisertib + Alpelisib; first compound 0.01581 µM,1.23
same,relative viability,Alisertib + Alpelisib; first compound 0.05 µM,0.994
same,relative viability,Alisertib + Alpelisib; first compound 0.1581 µM,0.558
same,relative viability,Alisertib + Alpelisib; first compound 0.5 µM,0.362
same,relative viability,Alisertib + Navitoclax; first compound 0.005 µM,1.12
same,relative viability,Alisertib + Navitoclax; first compound 0.01581 µM,1.12
same,relative viability,Alisertib + Navitoclax; first compound 0.05 µM,0.935
same,relative viability,Alisertib + Navitoclax; first compound 0.1581 µM,0.459
same,relative viability,Alisertib + Navitoclax; first compound 0.5 µM,0.471
same,relative viability,Alisertib + Linsitinib; first compound 0.005 µM,1.18
same,relative viability,Alisertib + Linsitinib; first compound 0.01581 µM,1.02
same,relative viability,Alisertib + Linsitinib; first compound 0.05 µM,0.716
same,relative viability,Alisertib + Linsitinib; first compound 0.1581 µM,0.509
same,relative viability,Alisertib + Linsitinib; first compound 0.5 µM,0.488
HCC-827,relative viability,Alisertib + Vorinostat; first compound 0.005 µM,0.779
same,relative viability,Alisertib + Vorinostat; first compound 0.01581 µM,0.717
same,relative viability,Alisertib + Vorinostat; first compound 0.05 µM,0.753
same,relative viability,Alisertib + Vorinostat; first compound 0.1581 µM,0.29
same,relative viability,Alisertib + Vorinostat; first compound 0.5 µM,0.274
same,relative viability,Alisertib + Alpelisib; first compound 0.005 µM,1.05
same,relative viability,Alisertib + Alpelisib; first compound 0.01581 µM,0.913
same,relative viability,Alisertib + Alpelisib; first compound 0.05 µM,0.321
same,relative viability,Alisertib + Alpelisib; first compound 0.1581 µM,0.282
same,relative viability,Alisertib + Alpelisib; first compound 0.5 µM,0.232
same,relative viability,Alisertib + Navitoclax; first compound 0.005 µM,1.01
same,relative viability,Alisertib + Navitoclax; first compound 0.01581 µM,1
same,relative viability,Alisertib + Navitoclax; first compound 0.05 µM,0.545
same,relative viability,Alisertib + Navitoclax; first compound 0.1581 µM,0.324
same,relative viability,Alisertib + Navitoclax; first compound 0.5 µM,0.249
same,relative viability,Alisertib + Linsitinib; first compound 0.005 µM,0.908
same,relative viability,Alisertib + Linsitinib; first compound 0.01581 µM,0.928
same,relative viability,Alisertib + Linsitinib; first compound 0.05 µM,0.543
same,relative viability,Alisertib + Linsitinib; first compound 0.1581 µM,0.434
same,relative viability,Alisertib + Linsitinib; first compound 0.5 µM,0.316
NCI-H2228,relative viability,Alisertib + Vorinostat; first compound 0.005 µM,0.544
same,relative viability,Alisertib + Vorinostat; first compound 0.01581 µM,0.671
same,relative viability,Alisertib + Vorinostat; first compound 0.05 µM,0.373
same,relative viability,Alisertib + Vorinostat; first compound 0.1581 µM,0.0949
same,relative viability,Alisertib + Vorinostat; first compound 0.5 µM,0.104
same,relative viability,Alisertib + Alpelisib; first compound 0.005 µM,0.781
same,relative viability,Alisertib + Alpelisib; first compound 0.01581 µM,0.499
same,relative viability,Alisertib + Alpelisib; first compound 0.05 µM,0.256
same,relative viability,Alisertib + Alpelisib; first compound 0.1581 µM,0.133
same,relative viability,Alisertib + Alpelisib; first compound 0.5 µM,0.193
same,relative viability,Alisertib + Navitoclax; first compound 0.005 µM,0.829
same,relative viability,Alisertib + Navitoclax; first compound 0.01581 µM,0.672
same,relative viability,Alisertib + Navitoclax; first compound 0.05 µM,0.564
same,relative viability,Alisertib + Navitoclax; first compound 0.1581 µM,0.0729
same,relative viability,Alisertib + Navitoclax; first compound 0.5 µM,0.0587
same,relative viability,Alisertib + Linsitinib; first compound 0.005 µM,0.55
same,relative viability,Alisertib + Linsitinib; first compound 0.01581 µM,0.936
same,relative viability,Alisertib + Linsitinib; first compound 0.05 µM,0.317
same,relative viability,Alisertib + Linsitinib; first compound 0.1581 µM,0.12
same,relative viability,Alisertib + Linsitinib; first compound 0.5 µM,0.095
EMC-BAC-2,relative viability,Alisertib + Vorinostat; first compound 0.005 µM,0.28
same,relative viability,Alisertib + Vorinostat; first compound 0.01581 µM,0.257
same,relative viability,Alisertib + Vorinostat; first compound 0.05 µM,0.202
same,relative viability,Alisertib + Vorinostat; first compound 0.1581 µM,0.186
same,relative viability,Alisertib + Vorinostat; first compound 0.5 µM,0.151
same,relative viability,Alisertib + Alpelisib; first compound 0.005 µM,0.701
same,relative viability,Alisertib + Alpelisib; first compound 0.01581 µM,0.567
same,relative viability,Alisertib + Alpelisib; first compound 0.05 µM,0.296
same,relative viability,Alisertib + Alpelisib; first compound 0.1581 µM,0.259
same,relative viability,Alisertib + Alpelisib; first compound 0.5 µM,0.143
same,relative viability,Alisertib + Navitoclax; first compound 0.005 µM,1.08
same,relative viability,Alisertib + Navitoclax; first compound 0.01581 µM,0.978
same,relative viability,Alisertib + Navitoclax; first compound 0.05 µM,0.362
same,relative viability,Alisertib + Navitoclax; first compound 0.1581 µM,0.296
same,relative viability,Alisertib + Navitoclax; first compound 0.5 µM,0.18
same,relative viability,Alisertib + Linsitinib; first compound 0.005 µM,0.752
same,relative viability,Alisertib + Linsitinib; first compound 0.01581 µM,0.595
same,relative viability,Alisertib + Linsitinib; first compound 0.05 µM,0.298
same,relative viability,Alisertib + Linsitinib; first compound 0.1581 µM,0.279
same,relative viability,Alisertib + Linsitinib; first compound 0.5 µM,0.202
NCI-H23,relative viability,Alisertib + Vorinostat; first compound 0.005 µM,0.456
same,relative viability,Alisertib + Vorinostat; first compound 0.01581 µM,0.24
same,relative viability,Alisertib + Vorinostat; first compound 0.05 µM,0.132
same,relative viability,Alisertib + Vorinostat; first compound 0.1581 µM,0.153
same,relative viability,Alisertib + Vorinostat; first compound 0.5 µM,0.149
same,relative viability,Alisertib + Alpelisib; first compound 0.005 µM,0.819
same,relative viability,Alisertib + Alpelisib; first compound 0.01581 µM,0.462
same,relative viability,Alisertib + Alpelisib; first compound 0.05 µM,0.228
same,relative viability,Alisertib + Alpelisib; first compound 0.1581 µM,0.173
same,relative viability,Alisertib + Alpelisib; first compound 0.5 µM,0.157
same,relative viability,Alisertib + Navitoclax; first compound 0.005 µM,0.677
same,relative viability,Alisertib + Navitoclax; first compound 0.01581 µM,0.562
same,relative viability,Alisertib + Navitoclax; first compound 0.05 µM,0.334
same,relative viability,Alisertib + Navitoclax; first compound 0.1581 µM,0.175
same,relative viability,Alisertib + Navitoclax; first compound 0.5 µM,0.143
same,relative viability,Alisertib + Linsitinib; first compound 0.005 µM,0.621
same,relative viability,Alisertib + Linsitinib; first compound 0.01581 µM,0.545
same,relative viability,Alisertib + Linsitinib; first compound 0.05 µM,0.228
same,relative viability,Alisertib + Linsitinib; first compound 0.1581 µM,0.191
same,relative viability,Alisertib + Linsitinib; first compound 0.5 µM,0.155
SK-LU-1,relative viability,Alisertib + Vorinostat; first compound 0.005 µM,0.749
same,relative viability,Alisertib + Vorinostat; first compound 0.01581 µM,0.427
same,relative viability,Alisertib + Vorinostat; first compound 0.05 µM,0.287
same,relative viability,Alisertib + Vorinostat; first compound 0.1581 µM,0.251
same,relative viability,Alisertib + Vorinostat; first compound 0.5 µM,0.246
same,relative viability,Alisertib + Alpelisib; first compound 0.005 µM,0.929
same,relative viability,Alisertib + Alpelisib; first compound 0.01581 µM,0.458
same,relative viability,Alisertib + Alpelisib; first compound 0.05 µM,0.286
same,relative viability,Alisertib + Alpelisib; first compound 0.1581 µM,0.302
same,relative viability,Alisertib + Alpelisib; first compound 0.5 µM,0.247
same,relative viability,Alisertib + Navitoclax; first compound 0.005 µM,0.841
same,relative viability,Alisertib + Navitoclax; first compound 0.01581 µM,0.736
same,relative viability,Alisertib + Navitoclax; first compound 0.05 µM,0.101
same,relative viability,Alisertib + Navitoclax; first compound 0.1581 µM,0.139
same,relative viability,Alisertib + Navitoclax; first compound 0.5 µM,0.112
same,relative viability,Alisertib + Linsitinib; first compound 0.005 µM,1.07
same,relative viability,Alisertib + Linsitinib; first compound 0.01581 µM,0.924
same,relative viability,Alisertib + Linsitinib; first compound 0.05 µM,0.361
same,relative viability,Alisertib + Linsitinib; first compound 0.1581 µM,0.324
same,relative viability,Alisertib + Linsitinib; first compound 0.5 µM,0.24
